# Patent publication US6033669A, “Methods for generating cytotoxic T cells and treatment of diseases thereby” (priority 1992, dated 2000)
# Read-outs that look alike come from different tables or passages of the source. Non-standard residues stand in square brackets, D forms with d. Residues, ends and D or L forms follow the SMILES beside them. *: point of attachment. CH2CH2O(Galα1-4Galβ) = OC[C@H]1O[C@H](O[C@@H]2[C@H](O)[C@@H](O)[C@H](OCC*)O[C@@H]2CO)[C@H](O)[C@@H](O)[C@H]1O; X1 = OC[C@H]1O[C@H](O[C@@H]2[C@H](O)[C@@H](O)[C@H](*)O[C@@H]2CO)[C@H](O)[C@@H](O)[C@H]1O; hCys = N[C@@H](CCS)C(=O)O
# Assays:
# [1] = tested on: monoclonal antibody Pk002; assay: ELISA recognition of Gal2 glycopeptides by monoclonal antibody Pk002; type: binding, mouse; details: antibody Pk002 (specificity Globotriaosyl Gal--Gal--Glc, CD77); peptides coated at 50 μg/ml, pH 9.6
# Procedure: (§1) Peptides (50 μg/ml) were diluted in 0.05 M carbonate buffer (pH 9.6) and 100 μl/well was added to flat-bottomed Costar microplates (cat. No 3590) for incubation over-night at 4° C. Plates were washed once with PBS, pre-incubated with […] for 30 minutes at room temperature and washed twice with PBS/0.05% Tween buffer. Monoclonal antibodies were diluted in 0.5% gelatin/PBS/0.05% Tween, added to microplates and incubated for 2 hours at room temperaure, and flick-washed with PBS/Tween. Alkaline phosphatase conjugated rabbit anti-mouse immunoglobulins (Dakopauts code No. S 414) was diluted 1/1000 in PBS/Tween and added as 100 μl/well. After 2 hours incubation at room temperature and 4 washes with PBS/Tween, 100 μl of alkaline phosphatase substrate solution was added. Plates were read after 2 hour at room temperaure, using a Multiskan System (Lab systems), for optical density at 405 nm.
# [2] = tested on: monoclonal antibody MC2101; assay: ELISA recognition of Gal2 glycopeptides by monoclonal antibody MC2101; type: binding, mouse; details: for Absorbance at 405 nm: antibody MC2101 (specificity Galabios Gal--Gal), peptides coated at 50 μg/ml, pH 9.6
# Procedure: as §1
# The ELISA assay was performed as described in connection with Table 4.
# [3] = tested on: target cells coated with different peptides and glycopeptides; assay: Immunogenicity: mice immunized with glycopeptides, restimulated CTL tested for killing of coated target cells; type: in vivo; details: for Comments: Table 5, comment on immunogenicity and cross-reactivity of CTL
# RMA-S cells = assay: Membrane expression of the CHO part (Gal2) by antibody staining in FACS; type: cell-based; details: data not shown
# Procedure: Panel A: RMA-s cells were incubated for 24 hours at 26° C. to induce expression of empty D^b MHC-1 chains at the cell surface, and at 37° C., and stained for D^b expression. Panel B: Removal of D^b expression by pronase treatment of RMA-S cells, preincubated at 26° C. Pronase treatment for 2 h and 4 h. D^b removal is complete at 4 h. Panels C and E: 26° C. induced RMA-S cells were treated with the glycopeptides Gal2 -CSG11 (panel C) or Gal2 CAS10 (panel E), 300 μM for 2 h at 37° C., washed and stained for Gal2 expression. Panels D and F: Glycopeptide treated RMA-S cells as in panels C and E were pronase treated to remove Db and glycopeptide expression, washed and further incubated at 37° C. to allow re-expression of glycopeptides and stained for Gal2 expression.
# When the glycopeptide bind to MHC-1, on the cell surface, the expression (and acessibility) of the corresponding CHO part, can be detected by antibody staining in FACS, as described above in relation to FIGS. 10C and E.
# EL4 and RMA-S cells = type: cell-based, mice; details: FIG. 11
# [4] = tested on: pep 9(PR8)-coated RMA target cells; assay: Kinetics of CTL activity after one s.c. injection of peptide (51Cr release); type: in vivo, mice; details: primed once with 100 μg
# [5] = 100 μg s.c., restimulated with 5 μM in vitro
# [6] = priming 1 μg, restimulation 0.05 μM, effector:target 20:1
# [7] = priming 1 μg, restimulation 0.05 μM, effector:target 40:1
# [8] = priming 1 μg, restimulation 5.00 μM, effector:target 20:1
# [9] = priming 1 μg, restimulation 5.00 μM, effector:target 40:1
# [10] = priming 10 μg, restimulation 0.05 μM, effector:target 20:1
# [11] = priming 10 μg, restimulation 0.05 μM, effector:target 40:1
# [12] = priming 10 μg, restimulation 5.00 μM, effector:target 20:1
# [13] = priming 10 μg, restimulation 5.00 μM, effector:target 40:1
# [14] = priming 100 μg, restimulation 0.05 μM, effector:target 20:1
# [15] = priming 100 μg, restimulation 0.05 μM, effector:target 40:1
# [16] = priming 100 μg, restimulation 5.00 μM, effector:target 20:1
# [17] = priming 100 μg, restimulation 5.00 μM, effector:target 40:1
compound,measurement,setting,value
C A S N E N M E T M (CASNENMETM) [CAS10],Absorbance at 405 nm,[1],0.01
same,Absorbance at 405 nm,[2],0.02
R G Y h Y Q G L [RGY8-4h],Comments,[3],"Strong, with RGY8 reactivity"
CC(C)C[C@H](NC(=O)CNC(=O)[C@H](CCC(N)=O)NC(=O)[C@H](Cc1ccc(O)cc1)NC(=O)[C@@H](NC(=O)[C@H](Cc1ccc(O)cc1)NC(=O)CNC(=O)[C@H](CCCNC(=N)N)NC(=O)[C@@H](N)CSCCO[C@@H]1O[C@H](CO)[C@H](O[C@H]2O[C@H](CO)[C@H](O)[C@H](O)[C@H]2O)[C@H](O)[C@H]1O)C(C)C)C(=O)O [Gal2 -CRG9],expression of the Gal2 epitope on the surface of cells that have bound glycopeptides (FACS),RMA-S cells,high Gal2 expression
F A P G h Y P A L [FAP9-5h],Comments,[3],"Weaker, low FAP9 reactivity"
RGYVYQGL [RGY8],Comments,[3],Some RGY8-4h reactivity
CC[C@H](C)[C@H](NC(=O)[C@H](CCC(=O)O)NC(=O)[C@@H]1CCCN1C(=O)[C@@H]1CCCN1C(=O)[C@@H](NC(=O)[C@H](CC(N)=O)NC(=O)[C@H](CO)NC(=O)[C@@H]1CCCN1C(=O)CNC(=O)[C@H](CO)NC(=O)[C@@H](N)CSCCO[C@@H]1O[C@H](CO)[C@H](O[C@H]2O[C@H](CO)[C@H](O)[C@H](O)[C@H]2O)[C@H](O)[C@H]1O)[C@@H](C)O)C(=O)O [Gal2 -CSG11],Absorbance at 405 nm,[1],0.04
same,expression of the Gal2 epitope on the surface of cells that have bound glycopeptides (FACS),RMA-S cells,high Gal2 expression
same,"reactivity with MC2101 in ELISA, comparison",[2],reacted stronger than the GAL2 -CAS10 peptide
same,Absorbance at 405 nm,[2],1.86
CC(C)C[C@H](NC(=O)CNC(=O)[C@H](CCC(N)=O)NC(=O)[C@H](Cc1ccc(O)cc1)NC(=O)[C@H](CCSCCO[C@@H]1O[C@H](CO)[C@H](O[C@H]2O[C@H](CO)[C@H](O)[C@H](O)[C@H]2O)[C@H](O)[C@H]1O)NC(=O)[C@H](Cc1ccc(O)cc1)NC(=O)CNC(=O)[C@@H](N)CCCNC(=N)N)C(=O)O [RGY8-4h-Gal2] (H-RGY[hCys](CH2CH2O(Galα1-4Galβ))YQGL-OH),"CTL generated, tested against EL-4 cells coated with RGY8-4 h-Gal2 and RGY8-4 h",[3]; FIG. 14(A),both peptide and glycopeptide specific CTL cells are generated
same,killing of EL-4 cells coated with SGV12-Gal2 or SGV12 by generated CTL,"[3]; FIG. 14(B), criss-cross",only the cells coated with glycopeptide were killed
CSGPSNTPPEI [CSG11],Absorbance at 405 nm,[1],0.08
same,Absorbance at 405 nm,[2],0.01
CC(C)C[C@H](NC(=O)[C@H](CSCCO[C@@H]1O[C@H](CO)[C@H](O[C@H]2O[C@H](CO)[C@H](O)[C@H](O)[C@H]2O)[C@H](O)[C@H]1O)NC(=O)[C@H](Cc1ccc(O)cc1)NC(=O)CNC(=O)CNC(=O)[C@@H]1CCCN1C(=O)[C@H](CC(N)=O)NC(=O)[C@H](CCC(=O)O)NC(=O)[C@@H](NC(=O)CNC(=O)[C@@H](N)CO)C(C)C)C(=O)N[C@H](C(=O)O)[C@@H](C)O [SGV12-Gal2],killing of EL-4 cells coated with glycopeptide 7 by generated CTL,[3]; FIG. 13,at a lower level
same,killing of EL-4 cells coated with glycopeptides 2 and 5 by generated CTL,[3]; FIG. 13,killed
same,recognition of carrier peptide alone (SGV12) and other control peptides by generated CTL,[3]; FIG. 13,did not recognize the carrier peptide alone
same,type of T cell response generated by immunization,"[3]; mouse, in vivo",Gal2 specific T cell response
same,expression of the Gal2 epitope on the surface of cells that have bound glycopeptides (FACS),RMA-S cells,high Gal2 expression
"FAP9: K^b binding peptide, SEQ ID NO: 20; sequence not printed (FAPGNYPAL)",Comments,[3],"Strong, with high FAP9-5h reactivity"
ASNENMETM [pep 9(PR8)],killing of peptide treated RMA-S and EL-4 target cells by influenza A (PR8) specific CTL,EL4 and RMA-S cells,strongly killed
same,CTL activity at day 30 after priming,[4],lower level of CTL activity could still be detected
same,time of peak CTL activity after the immunization,"[4]; restimulated with 5 μM, effector:target 60:1",7 days
same,CTL response against pep 9(PR8)-coated RMA and EL4 cells,EL4 target cells; [5],strong CTL response
same,killing of virus-infected target cells,EL4 target cells; [5],not killed
same,lysis of pep 9(PR8)-coated EL4 cells by CTL depleted for CD8^+ T cells,EL4 target cells; FIG. 7a,failed to lyse
same,effect of depletion of CD4^+ T cells on cytolytic activity,"EL4 target cells; FIG. 7a, pep 9(PR8)-coated target cells",did not affect the cytolytic activity
same,CTL response,EL4 target cells; immunization with 10 μg and 1 μg,less or even no CTL response
same,MHC restriction of peptide-induced cytotoxicity,"EL4 target cells; mouse, in vivo",H-2D^b restricted
same,specificity of induced CTL,"EL4 target cells; mouse, in vivo",preferentially killed their corresponding peptide-coated and virus-infected cells
same,EL4 target lysis (%) PR8-infected,EL4 target cells; [6],10.50%
same,EL4 target lysis (%) Untreated,EL4 target cells; [6],3.32%
same,EL4 target lysis (%) pep9(PR8)-coated,EL4 target cells; [6],15.54%
same,EL4 target lysis (%) PR8-infected,EL4 target cells; [7],12.43%
same,EL4 target lysis (%) Untreated,EL4 target cells; [7],4.08%
same,EL4 target lysis (%) pep9(PR8)-coated,EL4 target cells; [7],16.44%
same,EL4 target lysis (%) PR8-infected,EL4 target cells; [8],5.54%
same,EL4 target lysis (%) Untreated,EL4 target cells; [8],2.66%
same,EL4 target lysis (%) pep9(PR8)-coated,EL4 target cells; [8],9.28%
same,EL4 target lysis (%) PR8-infected,EL4 target cells; [9],6.88%
same,EL4 target lysis (%) Untreated,EL4 target cells; [9],3.34%
same,EL4 target lysis (%) pep9(PR8)-coated,EL4 target cells; [9],11.85%
same,EL4 target lysis (%) PR8-infected,EL4 target cells; [10],23.75%
same,EL4 target lysis (%) Untreated,EL4 target cells; [10],4.14%
same,EL4 target lysis (%) pep9(PR8)-coated,EL4 target cells; [10],34.60%
same,EL4 target lysis (%) PR8-infected,EL4 target cells; [11],31.19%
same,EL4 target lysis (%) Untreated,EL4 target cells; [11],5.74%
same,EL4 target lysis (%) pep9(PR8)-coated,EL4 target cells; [11],45.52%
same,EL4 target lysis (%) PR8-infected,EL4 target cells; [12],13.98%
same,EL4 target lysis (%) Untreated,EL4 target cells; [12],4.19%
same,EL4 target lysis (%) pep9(PR8)-coated,EL4 target cells; [12],22.09%
same,EL4 target lysis (%) PR8-infected,EL4 target cells; [13],15.04%
same,EL4 target lysis (%) Untreated,EL4 target cells; [13],5.63%
same,EL4 target lysis (%) pep9(PR8)-coated,EL4 target cells; [13],23.54%
same,EL4 target lysis (%) PR8-infected,EL4 target cells; [14],30.07%
same,EL4 target lysis (%) Untreated,EL4 target cells; [14],0.51%
same,EL4 target lysis (%) pep9(PR8)-coated,EL4 target cells; [14],50.73%
same,EL4 target lysis (%) PR8-infected,EL4 target cells; [15],30.76%
same,EL4 target lysis (%) Untreated,EL4 target cells; [15],0.12%
same,EL4 target lysis (%) pep9(PR8)-coated,EL4 target cells; [15],59.42%
same,EL4 target lysis (%) PR8-infected,EL4 target cells; [16],8.50%
same,EL4 target lysis (%) Untreated,EL4 target cells; [16],4.21%
same,EL4 target lysis (%) pep9(PR8)-coated,EL4 target cells; [16],34.73%
same,EL4 target lysis (%) PR8-infected,EL4 target cells; [17],7.00%
same,EL4 target lysis (%) Untreated,EL4 target cells; [17],4.61%
same,EL4 target lysis (%) pep9(PR8)-coated,EL4 target cells; [17],43.68%
CSCC[C@H](NC(=O)[C@@H](NC(=O)[C@H](CCC(=O)O)NC(=O)[C@H](CO[C@@H]1O[C@H](CO)[C@H](O[C@H]2O[C@H](CO)[C@H](O)[C@H](O)[C@H]2O)[C@H](O)[C@H]1O)NC(=O)[C@H](CC(N)=O)NC(=O)[C@H](CCC(=O)O)NC(=O)[C@H](CC(N)=O)NC(=O)[C@H](CO)NC(=O)[C@H](C)N)[C@@H](C)O)C(=O)O [Conjugate A5N9-6S-Gal2] (H-ASNENS(X1)ETM-OH),expression of the Gal2 epitope on the surface of cells that have bound glycopeptides (FACS),RMA-S cells,not recognized
CSCC[C@H](NC(=O)[C@@H](NC(=O)[C@H](CCC(=O)O)NC(=O)[C@H](CCSC)NC(=O)[C@H](CC(N)=O)NC(=O)[C@H](CCC(=O)O)NC(=O)[C@H](CC(N)=O)NC(=O)[C@H](CO)NC(=O)[C@H](C)NC(=O)[C@@H](N)CSCCO[C@@H]1O[C@H](CO)[C@H](O[C@H]2O[C@H](CO)[C@H](O)[C@H](O)[C@H]2O)[C@H](O)[C@H]1O)[C@@H](C)O)C(=O)O [Gal2 -CAS10],Absorbance at 405 nm,[1],0.04
same,Absorbance at 405 nm,[2],0.41
ASNENMDAM [pep 9(NT60)],lysis of virus specific and peptide-coated EL4 cells by induced CTL,"EL4 target cells; 0.05 μM used for restimulation versus 5 μM and 0.5 μM, 100 μg s.c.",more efficiently lysed
same,anti-peptide and antiviral CTL responses,"EL4 target cells; compared with pep 9(PR8), FIG. 3",stronger anti-peptide and antiviral CTL responses
same,specificity of induced CTL,"EL4 target cells; mouse, in vivo",preferentially killed their corresponding peptide-coated and virus-infected cells
